PMC11492252 (Heliyon, 2024)

Legend:
[1] = tested on: Escherichia coli (E. coli); experiment: Antimicrobial MIC, broth microdilution; type: cell-based
[2] = tested on: Candida albicans (C. albicans); experiment: Antifungal MIC, broth microdilution; type: cell-based

Structure (SMILES)	MIC [1] [µg/mL]	MIC [2] [µg/mL]
CC(=O)OCC1=C(C(=O)O)N2C(=O)[C@@H](NC(=O)Cc3cccs3)[C@H]2SC1 [Cephalothin]	< 32	–
C[C@@H]1C[C@@H]([C@H](O)CC2CC(=O)NC(=O)C2)C(=O)[C@@H](C)C1 [Cycloheximide]	–	< 201
